Experiment: Evaluation of water solubility (appearance of water dispersion)
Format: physicochemical
Details: 1.500 g e-As4S4 of Embodiment 5 or 100 mg r-As4S4 powder in 10 mL ddH2O; FIG. 1
Protocol: 1.500 grams of e-As4S4 of Embodiment 5 and 100 mg of the r-As4S4 powder were weighed and added in 10 mL of double distilled water (ddH2O), respectively to obtain the water dispersion solution of e-As4S4 and r-As4S4.

Structure (SMILES): S1[As]2S[As]3S[As]2S[As]13 [r-As4S4, As4S4]
- dissolution in ddH2O (appearance of the suspension): hardly to dissolve in water

Source: patent publication US11976300B2, “Use of water-soluble realgar solid dispersion in preparation of erythroid differentiation inducer for bone marrow hematopoietic stem cells and/or bone marrow hematopoietic progenitor cells” (Institute of Basic Medical Sciences Chinese Academy of …, priority 2018, dated 2024)
